Consider 4 molecules from patent US11236110B2 (priority 2017, dated 2022).

The conditions of series [1]: acidic counter-ion; cited from earlier work.
The nature of series [2]: Preliminary miscibility assays on the free base in selected solvents. Format: physicochemical. The conditions noted are these: for Miscibility: number of volumes needed to dissolve the oil at room temperature. The source says:
Preliminary Miscibility Assays on (R)-9-(2,5-difluorophenethyl)-4-ethyl-2-methyl-1-oxa-4,9-diazaspiro[5.5]undecan-3-One Free Base

For `Br` [Hydrobromic acid], the pKa1 in series [1] is listed as −6.
Regarding `CCN1CC2(CCN(CCc3cc(F)ccc3F)CC2)O[C@H](C)C1=O` [(R)-9-(2,5-difluorophenethyl)-4-ethyl-2-methyl-1-oxa-4,9-diazaspiro[5.5]undecan-3-one], in series [2] (room temperature, all the solvents tested (Table 2)), the “miscibility of the oil with the solvents tested” value is “freely miscible”. For the same molecule, the Miscibility in series [2] (solvent H2O), in series [2] (solvent IPA (isopropanol)), in series [2] (solvent MIK (methyl isobutyl ketone)), in series [2] (solvent THF (tetrahydrofuran)) and in series [2] (solvent Toluene) was 10 V throughout.
Take `O=C(O)[C@@H](O)c1ccccc1` [(S)-(+)-Mandelic acid]: the pKa1 in series [1] was 3.4.
As for `O=[N+]([O-])O` [Nitric acid], the pKa1 in series [1] is −1.4.
